Laboratory results from ChEMBL document CHEMBL5113380, “Functionalized quinoxalinones as privileged structures with broad-ranging pharmacological activities” (Eur J Med Chem, 2022).
Values after ≈ are worked out from the molar mass of the structure shown.

Assays:
[1] = target: Glutamate receptor ionotropic AMPA (Homo sapiens, UniProt P42261+P42262+P42263+P48058); experiment: Antagonist activity at AMPA receptor (unknown origin); assay type: protein-complex assay
Pseudomonas aeruginosa = experiment: Antibacterial activity against Pseudomonas aeruginosa; assay type: functional
Candida = experiment: Antifungal activity against Candida species; assay type: functional
Escherichia coli = experiment: Antibacterial activity against Escherichia coli; assay type: functional
Staphylococcus aureus [2] = experiment: Antibacterial activity against Staphylococcus aureus; assay type: functional
Rattus norvegicus [3] = experiment: Antiinflammatory activity in rat model of hind paw edema assessed as paw thickness at 0.9 mg per 100 g of body weight measured after 4 hrs; assay type: functional
[4] = target: Glutamate [NMDA] receptor; experiment: Displacement of [3H]DCKA from NMDA receptor (unknown origin); assay type: protein-complex assay, Homo sapiens
[5] = target: Glutamate [NMDA] receptor; experiment: Displacement of [3H]CGP-39653 from NMDA receptor (unknown origin); assay type: protein-complex assay, Homo sapiens
[6] = target: Glutamate [NMDA] receptor; experiment: Displacement of [3H]kainic acid from NMDA receptor (unknown origin); assay type: protein-complex assay, Homo sapiens
[7] = Displacement of [3H]AMPA from NMDA receptor (unknown origin); assay type: protein-complex assay, Homo sapiens
RAW264.7 = experiment: Anti-inflammatory activity in mouse RAW264.7 cells assessed as inhibition of LPS-induced NO production at 10 uM after 24 hrs by Griess reagent-based assay; assay type: functional; set-up: scale not given: the % may be the effect or the level left
Mus musculus = experiment: Antiinflammatory activity against mouse assessed as reduction in carragenan-induced paw edema at 25 mg/kg,po treated 1 hr prior to carrageenan challenge; assay type: functional; set-up: scale not given: the % may be the effect or the level left
Rattus norvegicus [8] = experiment: Ulcerogenic activity in male albino rat assessed as ulceration at 25 mg/kg, po; assay type: functional
Staphylococcus aureus [9] = experiment: Antibacterial activity against methicillin-resistant Staphylococcus aureus; assay type: functional
Staphylococcus aureus [10] = experiment: Antibacterial activity against methicillin-sensitive Staphylococcus aureus; assay type: functional
[11] = Binding affinity to estrogen receptor (unknown origin); set-up: species or system Homo sapiens
Homo sapiens [12] = species on record: Homo sapiens; experiment: Binding affinity to estrogen receptor (unknown origin) relative to control
[13] = Binding affinity to Creatine kinase (CK) (unknown origin); set-up: species or system Homo sapiens
Homo sapiens [14] = species on record: Homo sapiens; experiment: Binding affinity to Creatine kinase (CK) (unknown origin) relative to control
[15] = Aqueous solubility of the compound at pH 7.4; assay type: physicochemical; conditions: buffer
[16] = Metabolic stability in rat liver microsomes assessed as half-life; assay type: ADME, Microsome
[17] = target: Glutamate [NMDA] receptor (Homo sapiens) (UniProt Q05586+Q12879+Q13224+O15399+O60391+Q14957+Q8TCU5); experiment: Displacement of [3H]DCKA from NMDA receptor (unknown origin) at 10 ng/ml relative to control; assay type: protein-complex assay; conditions: filed as antagonist
[18] = target: Kappa-type opioid receptor (Homo sapiens, UniProt P41145); experiment: Antagonist at KOR expressed in human U2OS cells measured by High content imaging based beta-arrestin translocation assay; assay type: cell-based
Sequence of Kappa-type opioid receptor (P41145 whole entry): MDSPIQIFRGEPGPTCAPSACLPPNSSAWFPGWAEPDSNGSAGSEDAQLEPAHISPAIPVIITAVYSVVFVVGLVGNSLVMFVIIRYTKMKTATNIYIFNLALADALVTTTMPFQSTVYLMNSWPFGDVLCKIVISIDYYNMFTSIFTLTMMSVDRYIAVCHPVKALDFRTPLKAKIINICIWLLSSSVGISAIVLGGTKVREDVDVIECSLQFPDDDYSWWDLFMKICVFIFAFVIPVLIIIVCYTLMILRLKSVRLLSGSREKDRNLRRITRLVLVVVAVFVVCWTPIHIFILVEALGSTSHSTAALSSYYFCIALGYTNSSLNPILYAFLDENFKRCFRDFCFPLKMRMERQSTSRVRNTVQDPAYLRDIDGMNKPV

Homo sapiens [19] = species on record: Homo sapiens; experiment: Ratio IC50 for inhibition of JNK1 (unknown origin) over JNK3 (unknown origin)
Homo sapiens [20] = species on record: Homo sapiens; experiment: Ratio IC50 for inhibition of JNK2 (unknown origin) over JNK3 (unknown origin)
Anopheles sp. [21] = experiment: Larvicidal activity against Anopheles at 1 ug/ml; assay type: functional; conditions: dose 1.0 µg/ml
Anopheles sp. [22] = experiment: Larvicidal activity against Anopheles at 0.5 ug/ml; assay type: functional; conditions: dose 0.5 µg/ml
Anopheles sp. [23] = experiment: Larvicidal activity against Anopheles at 0.25 ug/ml; assay type: functional; conditions: dose 0.25 µg/ml
Anopheles sp. [24] = experiment: Larvicidal activity against Anopheles at 0.1 ug/ml; assay type: functional; conditions: dose 0.1 µg/ml
HeLa S3 = experiment: Cytotoxicity against human HeLa S3 cells; assay type: functional, cell-based
HT-29 = experiment: Antiproliferative activity against human HT-29 cells; assay type: functional, cell-based
HeLa = experiment: Antiproliferative activity against human HeLa cells; assay type: functional, cell-based
SMMC-7721 = experiment: Antiproliferative activity against human SMMC-7721 cells; assay type: functional, cell-based
[25] = target: Glutamate [NMDA] receptor; experiment: Displacement of [3H]L-689560 from NMDA receptor (unknown origin); assay type: protein-complex assay, Homo sapiens
[26] = target: Glutamate [NMDA] receptor; experiment: Displacement of [3H]NMDA from NMDA receptor (unknown origin); assay type: protein-complex assay, Homo sapiens
[27] = Aqueous solubility of the compound; assay type: physicochemical; conditions: buffer

`Cc1cc2[nH]c(=O)c(=O)n(C[C@H](N)C(=O)O)c2cc1C` showed an EC50 [1] of 290000 nM.
Work on `O=c1[nH]c2cc3cccnc3c(Cl)c2nc1CBr` yielded an MIC (Pseudomonas aeruginosa) of 31.2 µg/mL (≈ 96.3 µM), an MIC (Candida) of 31.2 µg/mL (≈ 96.3 µM) and an MIC (Escherichia coli) of 31.2 µg/mL (≈ 96.3 µM). For the same molecule, the MIC (Staphylococcus aureus [2]) was 31.2 µg/mL (≈ 96.3 µM).
In the case of `O=C(Cc1nc2ccccc2[nH]c1=O)Nn1c(-c2ccc(Cl)cc2)csc1=S`, the Activity (Rattus norvegicus [3]) is reported as 0.45 mm.
In the case of `O=C(O)CC1CCc2cc(Br)cc3[nH]c(=O)c(=O)n1c23` (configuration not stated), the Ki [4] is reported as 9.9 nM, the IC50 [5] is reported as over 30000 nM and the IC50 [6] is reported as over 30000 nM. The IC50 [7] was 4600 nM.
`Cc1cc2[nH]c(=O)c(=O)n(C[C@@H](N)C(=O)O)c2cc1C` showed an EC50 [1] of 300000 nM.
Work on `Cc1cccc(Oc2nn3c(C(N)=O)nnc3c3ccccc23)c1` yielded an Activity (RAW264.7) of 10.31%, an Activity (Mus musculus) of 42.81% and an Activity (Rattus norvegicus [8]) of 20%.
Molecule `COc1ccc2ncc(=O)n(CC[C@H]3OC[C@H](NCc4cc5c(cn4)OCCC5)CO3)c2c1` has an MIC (Staphylococcus aureus [9]) of 32 µg/mL (≈ 70.7 µM) and an MIC (Staphylococcus aureus [10]) of 8.16 µg/mL (≈ 18 µM).
Molecule `CC[C@H]1C(=O)N(CC)c2ccc(F)cc2N1C(=O)c1ccc(O)cc1O` has an IC50 [11] of 5.4 nM, an Activity (Homo sapiens [12]) of 92% and an EC50 [13] of 50 nM. It also gave an Activity (Homo sapiens [14]) of 44%, a solubility [15] of over 100 µg/mL and a half-life [16] of over 30 min.
`O=C(O)CC1CCc2cc(Cl)cc3[nH]c(=O)c(=O)n1c23` (configuration not stated) showed a Ki [4] of 5.1 nM and an Activity [17] of 90.3%.
In the case of `COc1ccc(N2CCN(CCCNC(=O)CN3C(=O)C4CCCN4c4c(C)ccnc43)CC2)cc1` (configuration not stated), the IC50 [18] is reported as 2820 nM.
With `O=C(CC1CCc2cc(Cl)cc3[nH]c(=O)c(=O)n1c23)Nc1ccccc1` (configuration not stated) the Ki [4] was 6.6 nM and the Activity [17] was 79.3%.
`O=c1[nH]c2ccccc2nc1Cc1nnc(S)n1-c1ccccc1` gave an Activity (Rattus norvegicus [3]) of 0.47 mm.
Work on `N#Cc1ccc2c(c1)N/C(=C\C(=O)c1cccc3ccccc13)C(=O)N2` yielded a Ratio IC50 (Homo sapiens [19]) of over 500 and a Ratio IC50 (Homo sapiens [20]) of over 500.
Molecule `C=Cn1c(=O)c(-c2ccccc2)nc2ccc(OC)cc21` has an Activity (Anopheles sp. [21]) of 100%, an Activity (Anopheles sp. [22]) of 100% and an Activity (Anopheles sp. [23]) of 100%. For the same molecule, the Activity (Anopheles sp. [24]) was 80%.
For `N#Cc1ccc2c(c1)N1CCCCC1C(=O)N2` (configuration not stated), the IC50 (HeLa S3) was 7600 nM.
Molecule `COc1ccc2c(c1)[nH]c(=O)c(=O)n2Cc1cc(OC)c(OC)c(OC)c1` has an IC50 (HT-29) of 1480 nM, an IC50 (HeLa) of 693 nM and an IC50 (SMMC-7721) of 1600 nM.
`CCC(c1c(Cl)c(Cl)cc2nc(O)c(O)nc12)n1cnnc1` (configuration not stated) gave an IC50 [25] of 2.6 nM, an IC50 [26] of 90 nM and a solubility [27] of over 5000 µg/mL.
For `CC[C@H]1C(=O)N(C)c2ccc(F)cc2N1C(=O)c1ccc(O)cc1O`, the IC50 [11] was 20 nM, the Activity (Homo sapiens [12]) was 96% and the EC50 [13] was 169 nM. It also gave an Activity (Homo sapiens [14]) of 36%, a solubility [15] of over 100 µg/mL and a half-life [16] of over 30 min.
